Marks after values point to notes of the source that are not given here.
Assays:
cynomolgus monkey GCGR = test: cynomolgus monkey glucagon receptor cAMP assay; assay type: cell-based; details: HEK293 cells
Method: (§1) For each receptor assay, the clonal cells were seeded into 384-well plates at the appropriate densities ranging from 2000-5000 cells/per well. Compounds were diluted in HBSS supplemented with 5 mM HEPES, 0.1% BSA and 0.5 mM IBMX and added to the cells. […] Standard curves were included in each assay plate for back calculation of cAMP concentrations.

[1] = Single-dose efficacy in DIO mice: food intake, body weight
[2] = Fed blood glucose after 8 days of treatment in DIO mice; assay type: in vivo, mouse; details: 0.3 nmol/kg s.c. every day
Method: (§2) Compound 1 was evaluated for its ability to reduce foot intake and body weight and improve glucose homeostasis on repeat dosing in male DIO C57Bl/6 mice over a period of 8 days. Male DIO C57BL/6N mice (20 weeks of age, 14 weeks on high fat diet) were obtained from Taconic Laboratory. […] Animals were acclimated to the facility for at least one week prior to the start of the experiment.
(§3) The day prior to dosing, mice were grouped based on individual body weights. At 3:00-4:00 pm for each of the next 8 days, animals and food intake were weighed. […] After 8 days, mice are fasted for 5 hours and then given a 2 g/kg bolus of glucose orally at t=0. At t=0, 30, 60, 90, and 120 minutes post glucose challenge blood glucose is measured and at t=0, 30, and 90 minutes blood in drawn to measure plasma insulin. […] All data are presented as the mean±SEM (FIGS. 8 and 9, and Tables 5-8).

human GCGR = target: T1, human GCGR (Homo sapiens, UniProt P47871); test: human glucagon receptor cAMP assay; assay type: cell-based; details: HEK293 cells
T1 construct: expressed in transfected cells
Method: as §1

[3] = OGTT after 8 days of treatment in DIO mice (glucose, insulin); assay type: in vivo, mouse; details: 0.3 nmol/kg s.c. every day
Method: as §2, §3

mouse GLP1R = target: T2, mouse GLP1R (Mus musculus, UniProt O35659); test: mouse GLP1 receptor cAMP assay; assay type: cell-based; details: HEK293 cells
T2 construct: expressed in transfected cells
T2 sequence (O35659 22-463): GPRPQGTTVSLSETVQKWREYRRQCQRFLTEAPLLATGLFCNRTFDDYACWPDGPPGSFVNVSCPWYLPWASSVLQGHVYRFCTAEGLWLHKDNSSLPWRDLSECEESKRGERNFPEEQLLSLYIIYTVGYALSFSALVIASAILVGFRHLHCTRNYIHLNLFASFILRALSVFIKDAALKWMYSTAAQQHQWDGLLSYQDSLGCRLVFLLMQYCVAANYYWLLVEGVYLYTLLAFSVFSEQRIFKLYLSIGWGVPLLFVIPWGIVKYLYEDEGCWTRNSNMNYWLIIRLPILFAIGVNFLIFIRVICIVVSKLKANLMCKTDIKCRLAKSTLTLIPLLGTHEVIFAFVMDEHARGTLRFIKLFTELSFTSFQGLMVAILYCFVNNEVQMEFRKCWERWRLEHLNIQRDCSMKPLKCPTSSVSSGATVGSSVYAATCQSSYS
Method: as §1

[4] = Repeat dosing in DIO mice: fasting glucose, insulin, FGF21, plasma lipids; assay type: in vivo, mouse; details: 0.3 nmol/kg s.c. daily
Method: (§4) To control for the dosing frequency, all animals were dosed daily. Dosing frequency was determined on the basis of DIO mouse PK data for compound 2 and dulaglutide. Animals in the dulaglutide group received this drug daily. The vehicle-treated animals received vehicle daily. […] The day prior to initiating of dosing, animals were weighed and grouped by body weight. […].
(§5) Beginning 24-hr after the first dosing, three groups of mice were pair-fed (PF) to the 1.0, 2.0, or 4.0 nmol/kg compound 2-treated animals. The amount of food in the hopper of pair-fed mice was adjusted to match the average food consumed in the previous 24 hours by mice in the compound treatment group to which they were being matched. All PF groups were dosed daily with vehicle. On the ninth day (or Day 10 for the pair-fed groups), animals were fasted for 6 hours and body weight and fasting glucose were measured. Blood was collected for measurements of insulin, FGF21 and plasma lipids. The food intake, body weight, body composition, fasting glucose, fasting insulin, fasting FGF21, and fasting plasma lipid data are shown in tables 20-26.

rat GCGR = target: T3, rat GCGR (Rattus norvegicus, UniProt P30082); test: rat glucagon receptor cAMP assay; assay type: cell-based; details: HEK293 cells
T3 construct: expressed in transfected cells
Method: as §1

[5] = Repeat dosing in DIO mice: food intake, body weight, body composition; assay type: in vivo, mouse; details: 0.3 nmol/kg s.c. daily
Method: as §4, §5

[6] = Single-dose efficacy in DIO mice: IPGTT, fasting glucose, insulin; details: 0.3 nmol/kg s.c.
[7] = Weight loss in DIO mice, chronic dosing: body weight; assay type: in vivo, mouse; details: 0.3 nmol/kg s.c. every day
Method: as §2, §3

mouse GCGR = target: T4, mouse GCGR (Mus musculus, UniProt Q61606); test: mouse glucagon receptor cAMP assay; assay type: cell-based; details: HEK293 cells
T4 construct: expressed in transfected cells
Method: as §1

T4 sequence (Q61606 27-485): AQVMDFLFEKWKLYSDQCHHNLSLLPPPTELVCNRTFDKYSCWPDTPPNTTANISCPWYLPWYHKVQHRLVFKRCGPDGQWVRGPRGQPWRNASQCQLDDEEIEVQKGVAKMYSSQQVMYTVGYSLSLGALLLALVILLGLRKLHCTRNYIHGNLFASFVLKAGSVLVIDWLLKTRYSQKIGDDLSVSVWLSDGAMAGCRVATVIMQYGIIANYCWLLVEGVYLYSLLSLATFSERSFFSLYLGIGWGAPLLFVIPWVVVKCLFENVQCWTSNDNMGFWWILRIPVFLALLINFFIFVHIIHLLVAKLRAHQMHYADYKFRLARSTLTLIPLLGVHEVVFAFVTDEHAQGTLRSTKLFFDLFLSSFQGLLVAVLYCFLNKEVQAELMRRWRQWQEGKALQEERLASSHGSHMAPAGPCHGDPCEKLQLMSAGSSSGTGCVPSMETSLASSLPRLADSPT
T1 sequence (P47871 26-477): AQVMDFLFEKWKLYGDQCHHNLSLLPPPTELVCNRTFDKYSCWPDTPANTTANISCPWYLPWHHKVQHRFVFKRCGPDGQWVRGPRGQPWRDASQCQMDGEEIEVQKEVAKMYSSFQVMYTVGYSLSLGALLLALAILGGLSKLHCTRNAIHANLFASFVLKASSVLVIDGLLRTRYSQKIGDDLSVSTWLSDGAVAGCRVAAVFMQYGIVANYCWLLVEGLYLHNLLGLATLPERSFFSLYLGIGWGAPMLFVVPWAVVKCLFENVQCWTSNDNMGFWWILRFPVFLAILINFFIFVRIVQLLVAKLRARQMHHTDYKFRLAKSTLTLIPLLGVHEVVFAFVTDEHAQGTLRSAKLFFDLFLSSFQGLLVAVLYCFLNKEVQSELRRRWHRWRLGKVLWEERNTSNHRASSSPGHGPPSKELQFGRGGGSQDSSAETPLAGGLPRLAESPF
T3 sequence (P30082 27-485): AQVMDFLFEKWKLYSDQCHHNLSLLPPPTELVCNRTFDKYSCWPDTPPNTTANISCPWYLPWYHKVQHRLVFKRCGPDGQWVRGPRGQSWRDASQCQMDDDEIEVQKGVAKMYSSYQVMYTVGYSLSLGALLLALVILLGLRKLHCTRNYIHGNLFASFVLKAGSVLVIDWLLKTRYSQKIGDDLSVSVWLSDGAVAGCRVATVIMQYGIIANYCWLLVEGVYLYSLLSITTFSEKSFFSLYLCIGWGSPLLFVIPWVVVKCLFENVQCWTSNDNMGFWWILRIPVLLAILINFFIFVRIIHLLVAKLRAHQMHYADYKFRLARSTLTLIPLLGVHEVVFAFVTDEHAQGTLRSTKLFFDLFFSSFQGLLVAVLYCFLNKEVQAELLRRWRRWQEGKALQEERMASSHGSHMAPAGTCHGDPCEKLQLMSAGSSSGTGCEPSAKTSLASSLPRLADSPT

## Dulaglutide: the GLP1R agonist, dulaglutide [reference compound]
Cynomolgus monkey GCGR
  EC50: > 100 nM
[1]; 0.3 nmol/kg group, 24 hours pre-dose
  food intake: 3.1 ± 0.1 grams
[1]; single s.c. dose 0.3 nmol/kg, 18 hours after treatment
  Weight Change: −4.1 ± 0.3 %
[1]; single s.c. dose 0.3 nmol/kg, 18 hours post-dose
  food intake: 1.5 ± 0.1*^ grams
[2]
  fed Blood Glucose: 114 ± 13 mg/dL
Human GCGR
  EC50: > 100 nM
[3]
  blood glucose Delta AUC (OGTT): 6668 ± 1846 mg/dl/120 min
  blood glucose Total AUC (OGTT): 15758 ± 1054 mg/dl/120 min
[3]; 0 min after glucose challenge
  blood glucose during OGTT: 76 ± 9 mg/dL
  insulin during OGTT: 0.6 ± 0.1 ng/mL
[3]; 30 min after glucose challenge
  blood glucose during OGTT: 151 ± 14 mg/dL
  insulin during OGTT: 1.7 ± 0.2 ng/mL
[3]; 60 min after glucose challenge
  blood glucose during OGTT: 174 ± 17 mg/dL
[3]; 90 min after glucose challenge
  blood glucose during OGTT: 104 ± 10 mg/dL
  insulin during OGTT: 0.7 ± 0.2 ng/mL
[3]; 120 min after glucose challenge
  blood glucose during OGTT: 119 ± 9 mg/dL
Mouse GLP1R
  EC50: 0.035 ± 0.002 nM
[4]; after repeated dosing
  plasma Free Fatty Acids: 73.2 ± 12.0 µmol/L
  plasma Free Glycerol: 0.5 ± 0.1 mmol/L
  plasma Total cholesterol: 146.1 ± 3.3 mg/dL
  plasma Triglycerides: 24.1 ± 2.3 mg/dL
[4]; after repeated dosing (9 days)
  6 hour fasting Blood Glucose: 123 ± 5 mg/dL
  6 hour fasting Plasma Insulin: 1.4 ± 0.2 ng/mL
  6 hour fasting plasma FGF21: 0.5 ± 0.1 ng/mL
Rat GCGR
  EC50: > 100 nM
[5]; after repeated dosing
  body composition: Fat % of Body Weight: 22.8 ± 1.2%
  body composition: Fat Mass: 7.6 ± 1.1 g
  body composition: Lean % of Body Weight: 61.0 ± 1.7%
  body composition: Lean Mass: 22.1 ± 0.3 g
[5]; day 0
  daily food intake: 3.1 ± 0.2 grams
  percent body weight change: 0.0%
[5]; day 1
  daily food intake: 1.5 ± 0.2 grams
  percent body weight change: −3.7 ± 0.3%
[5]; day 2
  daily food intake: 1.3 ± 0.2 grams
  percent body weight change: −6.2 ± 0.6%
[5]; day 3
  daily food intake: 1.7 ± 0.3 grams
  percent body weight change: −7.8 ± 0.8%
[5]; day 4
  daily food intake: 1.9 ± 0.2 grams
  percent body weight change: −9.2 ± 0.8%
[5]; day 5
  daily food intake: 2.1 ± 0.2 grams
  percent body weight change: −10.1 ± 0.8%
[5]; day 6
  daily food intake: 2.2 ± 0.2 grams
  percent body weight change: −10.2 ± 0.8%
[5]; day 7
  daily food intake: 2.3 ± 0.2 grams
  percent body weight change: −10.7 ± 1.0%
[5]; day 8
  daily food intake: 2.9 ± 0.4 grams
  percent body weight change: −11.1 ± 0.9%
[5]; day 9
  daily food intake: 2.5 ± 0.2 grams
  percent body weight change: −13.1 ± 1.1%
[6]; 10 minutes post-glucose (IPGTT)
  Plasma Insulin: 1.7 ± 0.2 ng/mL
[6]; 24 hours after treatment
  6 hour fasting Blood Glucose: 140 ± 7 mg/dL
  Blood Glucose Net AUC (IPGTT): 8471 ± 1204
[6]; 24 hours after treatment, 0 min
  blood glucose during IPGTT: 140 ± 7 mg/dL
[6]; 24 hours after treatment, 10 min
  blood glucose during IPGTT: 264 ± 18 mg/dL
[6]; 24 hours after treatment, 30 min
  blood glucose during IPGTT: 267 ± 22 mg/dL
[6]; 24 hours after treatment, 60 min
  blood glucose during IPGTT: 228 ± 12 mg/dL
[6]; 24 hours after treatment, 90 min
  blood glucose during IPGTT: 193 ± 9 mg/dL
[6]; Pre-glucose (24 hours after treatment)
  Plasma Insulin: 1.6 ± 0.2 ng/mL
[7]; day 0
  body weight: 45.9 ± 0.6 g
[7]; day 1
  body weight: 44.1 ± 0.6 g
[7]; day 2
  body weight: 42.2 ± 0.6 g
[7]; day 3
  body weight: 40.6 ± 0.6 g
[7]; day 4
  body weight: 39.3 ± 0.6 g
[7]; day 5
  body weight: 38.1 ± 0.7 g
[7]; day 6
  body weight: 37.1 ± 0.8 g
[7]; day 7
  body weight: 36.4 ± 1.0 g
[7]; day 8
  body weight: 36.5 ± 1.1 g
[7]; day −1
  body weight: 46.3 ± 0.6 g
Mouse GCGR
  EC50: > 100 nM

— patent publication US10428134B2, “Immunoglobulins and uses thereof” (JANSSEN PHARMACEUTICA NV, priority 2016, dated 2019)
